Earlier results, collected in patent US20030148386A1, “Method for drug design using comparative molecular field analysis (CoMFA) extended for multi-mode/multi-species ligand binding and disposition” (priority 2001, published 2003).

Target: T1, aryl hydrocarbon (Ah) receptor (Rattus norvegicus, UniProt P41738)
T1 sequence (P41738 10-853): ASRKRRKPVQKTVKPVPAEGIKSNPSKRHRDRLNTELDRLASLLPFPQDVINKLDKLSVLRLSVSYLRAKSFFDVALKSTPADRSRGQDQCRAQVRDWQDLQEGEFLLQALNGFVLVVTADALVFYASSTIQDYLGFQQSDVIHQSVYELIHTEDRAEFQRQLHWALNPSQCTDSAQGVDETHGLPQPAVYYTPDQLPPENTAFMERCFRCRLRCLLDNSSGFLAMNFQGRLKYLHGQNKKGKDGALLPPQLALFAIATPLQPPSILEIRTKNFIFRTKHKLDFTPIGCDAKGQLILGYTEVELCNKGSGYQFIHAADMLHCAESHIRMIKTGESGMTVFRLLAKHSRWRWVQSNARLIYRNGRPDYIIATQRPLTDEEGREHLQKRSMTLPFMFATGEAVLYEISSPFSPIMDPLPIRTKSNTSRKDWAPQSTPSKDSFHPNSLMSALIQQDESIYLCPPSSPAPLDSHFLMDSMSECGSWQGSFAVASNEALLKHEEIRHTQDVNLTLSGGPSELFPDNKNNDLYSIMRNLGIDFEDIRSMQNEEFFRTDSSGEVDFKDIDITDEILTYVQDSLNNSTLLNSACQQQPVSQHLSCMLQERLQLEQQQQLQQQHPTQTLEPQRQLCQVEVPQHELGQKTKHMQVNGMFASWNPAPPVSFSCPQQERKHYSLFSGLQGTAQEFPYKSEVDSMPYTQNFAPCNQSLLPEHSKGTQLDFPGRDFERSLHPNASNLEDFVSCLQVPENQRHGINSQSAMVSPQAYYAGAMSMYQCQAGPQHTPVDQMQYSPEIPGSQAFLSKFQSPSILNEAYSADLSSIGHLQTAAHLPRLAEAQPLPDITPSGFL
Details: not given

SMILES	binding affinity to the Ah receptor (in words)
Clc1cc2oc3c(Cl)c(Cl)c(Cl)cc3c2cc1Cl [Compound 29]	highest binding affinity
Clc1cc2c(cc1Cl)Oc1cc(Cl)c(Cl)cc1O2 [TCDD, 2,3,7,8-tetrachloro dibenzodioxin, reference compound]	highest binding affinity

Same assay, conditions: pEC50=-log(EC50)=logKi, EC50 in mol/L; displacement of radiolabeled TCDD

SMILES	pEC50 observed
Clc1ccc2c(c1)oc1ccccc12 [Compound 03]	4.377 ± 0.058
Clc1cc(Cl)c2c(c1)oc1c(Cl)cccc12 [Compound 08]	5.357
Clc1cc(Cl)c2c(c1)oc1ccc(Cl)cc12 [Compound 09]	4.071
Clc1cc2oc3c(Cl)cccc3c2c(Cl)c1Cl [Compound 13]	6.456
Clc1ccc2c(c1)oc1cc(Cl)c(Cl)c(Cl)c12 [Compound 14]	6.959
Clc1cc2c(oc3c(Cl)cccc32)c(Cl)c1Cl [Compound 16]	6.456
Clc1ccc2c(c1)oc1c(Cl)c(Cl)c(Cl)cc12 [Compound 17]	7.602
Clc1ccc2oc3c(Cl)c(Cl)c(Cl)cc3c2c1 [Compound 18]	6.699
Clc1cc(Cl)c2oc3cc(Cl)c(Cl)cc3c2c1 [Compound 19]	6.658
Clc1cc2oc3cc(Cl)c(Cl)cc3c2cc1Cl [Compound 20]	7.387 ± 0.059
Clc1ccc2oc3c(Cl)c(Cl)c(Cl)c(Cl)c3c2c1 [Compound 21]	6.921
Clc1cc2oc3cc(Cl)c(Cl)c(Cl)c3c2cc1Cl [Compound 22]	7.128 ± 0.105
Clc1cc(Cl)c2c(c1)oc1cc(Cl)c(Cl)c(Cl)c12 [Compound 23]	6.398
Clc1ccc2c(oc3c(Cl)cc(Cl)c(Cl)c32)c1Cl [Compound 24]	7.169
Clc1cc(Cl)c2oc3c(Cl)cc(Cl)c(Cl)c3c2c1 [Compound 25]	5.509
Clc1cc2oc3c(Cl)cc(Cl)c(Cl)c3c2cc1Cl [Compound 26]	5.886
Clc1cc(Cl)c2c(c1)oc1c(Cl)cc(Cl)c(Cl)c12 [Compound 27]	4.699
Clc1cc2oc3c(Cl)c(Cl)cc(Cl)c3c2cc1Cl [Compound 28]	6.699
Clc1cc2oc3c(Cl)c(Cl)c(Cl)cc3c2cc1Cl [Compound 29]	7.824 ± 0.028
Clc1cc(Cl)c2c(c1)oc1c(Cl)c(Cl)c(Cl)cc12 [Compound 30]	6.699
Clc1cc2oc3c(Cl)c(Cl)c(Cl)c(Cl)c3c2cc1Cl [Compound 31]	6.638
Clc1cc2c(oc3cc(Cl)c(Cl)c(Cl)c32)c(Cl)c1Cl [Compound 32]	6.569 ± 0.137
Clc1cc2c(oc3c(Cl)cc(Cl)c(Cl)c32)c(Cl)c1Cl [Compound 33]	5.081
Clc1cc2c(oc3c(Cl)c(Cl)c(Cl)cc32)c(Cl)c1Cl [Compound 34]	7.328 ± 0.036
